Experimental data reported in ChEMBL document CHEMBL1201862, “PubChem BioAssay data set” (2004).
Activity calls are given as the source filed them.

Assays:
[1] = target: T1, Calpain-2 catalytic subunit (Sus scrofa, UniProt P43367); test: pig calpain II inhibitor potency, dose response, biochemical, fluorogenic peptide substrate (AID 1420); format: functional
T1 sequence (P43367 whole entry): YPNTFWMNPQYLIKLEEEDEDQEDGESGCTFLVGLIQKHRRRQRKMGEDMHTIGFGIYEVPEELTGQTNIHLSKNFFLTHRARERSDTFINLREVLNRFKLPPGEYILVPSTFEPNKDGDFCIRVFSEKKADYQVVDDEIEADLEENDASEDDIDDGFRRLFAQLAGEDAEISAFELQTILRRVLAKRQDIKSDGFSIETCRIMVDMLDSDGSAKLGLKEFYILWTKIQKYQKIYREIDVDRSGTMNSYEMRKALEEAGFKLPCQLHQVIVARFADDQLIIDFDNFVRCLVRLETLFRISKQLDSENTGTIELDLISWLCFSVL

[2] = system: Vero; test: cells; format: functional; settings: Chlorocebus sabaeus
[3] = system: HEK293; test: inhibitors of LMP1-driven NF-kB reporter, dose response, cell-based, HEK293, luciferase, cherry-pick (AID 588343); format: functional; settings: Homo sapiens
[4] = NIH-3T3 fibroblast cytotoxicity, dose response, cytotoxicity control, cell-based, fluorescence, Alamar Blue, secondary assay (AID 2327); format: functional;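 note: NIH-3T3 mouse fibroblasts cultured with fluconazole at 8 µg/mL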
[5] = C. albicans growth with fluconazole, confirmation, fluorescence, retest (AID 2467); format: functional, cell-based
[6] = target: T2, Ubiquitin-conjugating enzyme E2 N (Homo sapiens, UniProt P61088); format: functional;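 note: Dose-response confirmation in a TR-FRET assay detecting UBC13-driven polyubiquitin chain formation, inhibition measured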
T2 sequence (P61088 whole entry): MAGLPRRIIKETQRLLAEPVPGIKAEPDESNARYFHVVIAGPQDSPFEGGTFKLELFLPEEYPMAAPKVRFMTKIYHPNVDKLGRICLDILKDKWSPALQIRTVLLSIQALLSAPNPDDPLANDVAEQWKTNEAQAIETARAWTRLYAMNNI

[7] = target: T3, Cytochrome P450 3A4 (Homo sapiens, UniProt P08684); settings: Potency
[8] = target: T3, Cytochrome P450 3A4
[9] = target: T4, Cytochrome P450 1A2 (Homo sapiens, UniProt P05177);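 note: PubChem cytochrome P450 panel assay, CYP1A2 panel member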
T4 sequence (P05177 whole entry): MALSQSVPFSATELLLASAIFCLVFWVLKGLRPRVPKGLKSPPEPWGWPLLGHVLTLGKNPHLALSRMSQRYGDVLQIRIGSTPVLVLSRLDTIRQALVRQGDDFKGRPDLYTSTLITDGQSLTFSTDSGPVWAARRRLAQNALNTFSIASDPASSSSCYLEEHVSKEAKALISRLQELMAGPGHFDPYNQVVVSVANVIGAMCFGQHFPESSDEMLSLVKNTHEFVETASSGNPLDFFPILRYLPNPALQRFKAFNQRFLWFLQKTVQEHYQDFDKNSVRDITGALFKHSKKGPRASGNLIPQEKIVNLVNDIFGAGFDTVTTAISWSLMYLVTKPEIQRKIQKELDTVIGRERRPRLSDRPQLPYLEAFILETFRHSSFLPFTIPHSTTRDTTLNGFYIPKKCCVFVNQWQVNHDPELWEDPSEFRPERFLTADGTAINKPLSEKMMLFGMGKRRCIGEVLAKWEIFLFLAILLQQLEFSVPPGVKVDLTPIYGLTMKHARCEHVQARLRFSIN

[10] = target: Cytochrome P450 2C19 (Homo sapiens, UniProt P33261); test: Cytochrome panel assay with activity outcomes. Panel member name: p450-cyp2c19 Compounds with AC50 equal or less than 10 uM are considered active; format: functional; settings: read-out: AC50
[11] = target: T5, Heat shock factor protein 1 (Mus musculus, UniProt P38532); test: inhibition of MG132-induced HSE-luciferase signal, confirmation, cell-based, NIH3T3, luminescence, dose retest (AID 2382); format: functional;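 note: NIH3T3 fibroblasts with HSF1-driven luciferase reporter stressed by proteasome inhibitor MG132; luminescence from HSF1-driven luciferase expression after 8 hours of MG132 stress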
T5 sequence (P38532 whole entry): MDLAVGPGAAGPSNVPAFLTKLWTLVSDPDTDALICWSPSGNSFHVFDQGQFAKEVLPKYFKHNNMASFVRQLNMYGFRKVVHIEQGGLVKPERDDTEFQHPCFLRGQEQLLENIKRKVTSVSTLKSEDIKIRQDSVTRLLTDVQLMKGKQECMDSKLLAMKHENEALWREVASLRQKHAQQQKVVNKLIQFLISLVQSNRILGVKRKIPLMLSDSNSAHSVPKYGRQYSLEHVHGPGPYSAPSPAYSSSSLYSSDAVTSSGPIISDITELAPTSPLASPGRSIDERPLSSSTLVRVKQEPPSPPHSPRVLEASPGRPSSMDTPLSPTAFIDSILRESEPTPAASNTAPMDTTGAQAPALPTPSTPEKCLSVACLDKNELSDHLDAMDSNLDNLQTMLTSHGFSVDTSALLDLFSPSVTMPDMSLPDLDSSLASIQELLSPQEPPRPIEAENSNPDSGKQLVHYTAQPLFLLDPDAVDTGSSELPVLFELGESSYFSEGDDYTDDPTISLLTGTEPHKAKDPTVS

[12] = target: T6, Rac GTPase-activating protein 1 (Homo sapiens, UniProt Q9H0H5); test: MgcRacGAP GTPase-activating activity inhibitors, confirmation, biochemical, ADP Hunter fluorescence, primary and confirmatory (AID 624330); format: functional
T6 sequence (Q9H0H5 whole entry): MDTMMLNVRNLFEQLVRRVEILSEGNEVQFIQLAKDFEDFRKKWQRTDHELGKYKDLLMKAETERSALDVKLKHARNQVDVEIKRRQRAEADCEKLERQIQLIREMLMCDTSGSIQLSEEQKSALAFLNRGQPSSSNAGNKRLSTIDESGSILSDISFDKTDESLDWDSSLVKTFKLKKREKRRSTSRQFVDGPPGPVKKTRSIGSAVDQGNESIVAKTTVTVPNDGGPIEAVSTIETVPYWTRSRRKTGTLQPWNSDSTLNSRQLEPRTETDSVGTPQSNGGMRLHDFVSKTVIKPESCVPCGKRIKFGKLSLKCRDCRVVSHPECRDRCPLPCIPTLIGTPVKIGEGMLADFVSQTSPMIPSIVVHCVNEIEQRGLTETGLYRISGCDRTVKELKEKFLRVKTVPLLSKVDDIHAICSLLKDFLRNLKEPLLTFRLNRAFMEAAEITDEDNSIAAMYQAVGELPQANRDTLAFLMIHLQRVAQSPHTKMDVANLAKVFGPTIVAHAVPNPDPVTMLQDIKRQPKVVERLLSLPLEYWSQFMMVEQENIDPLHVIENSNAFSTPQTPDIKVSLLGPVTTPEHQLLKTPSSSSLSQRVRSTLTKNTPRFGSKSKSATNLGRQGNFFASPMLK

[13] = target: Large T antigen (Simian virus 40, UniProt P03070); format: functional, Betapolyomavirus macacae;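 note: Confirmatory-stage PubChem screen for compounds that inhibit SV40 T antigen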
Sequence of Large T antigen (P03070 whole entry): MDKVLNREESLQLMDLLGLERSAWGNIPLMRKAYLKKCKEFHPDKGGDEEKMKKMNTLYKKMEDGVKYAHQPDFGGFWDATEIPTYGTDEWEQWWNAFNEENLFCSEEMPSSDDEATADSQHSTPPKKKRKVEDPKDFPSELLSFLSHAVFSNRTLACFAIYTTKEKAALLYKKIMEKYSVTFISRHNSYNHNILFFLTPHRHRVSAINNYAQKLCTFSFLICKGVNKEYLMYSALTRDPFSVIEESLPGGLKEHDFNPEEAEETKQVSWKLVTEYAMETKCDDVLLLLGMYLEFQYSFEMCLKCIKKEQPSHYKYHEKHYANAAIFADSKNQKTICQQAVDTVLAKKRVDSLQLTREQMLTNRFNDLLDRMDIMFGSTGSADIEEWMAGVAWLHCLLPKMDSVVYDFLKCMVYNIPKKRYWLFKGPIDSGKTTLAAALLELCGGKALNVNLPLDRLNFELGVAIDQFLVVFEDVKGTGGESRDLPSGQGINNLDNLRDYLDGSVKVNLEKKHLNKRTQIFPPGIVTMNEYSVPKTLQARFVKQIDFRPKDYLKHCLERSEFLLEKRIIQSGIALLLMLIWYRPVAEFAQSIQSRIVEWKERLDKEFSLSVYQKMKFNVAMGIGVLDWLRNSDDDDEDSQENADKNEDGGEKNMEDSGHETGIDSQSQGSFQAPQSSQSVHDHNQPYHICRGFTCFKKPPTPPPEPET

T3 sequence (P08684 whole entry): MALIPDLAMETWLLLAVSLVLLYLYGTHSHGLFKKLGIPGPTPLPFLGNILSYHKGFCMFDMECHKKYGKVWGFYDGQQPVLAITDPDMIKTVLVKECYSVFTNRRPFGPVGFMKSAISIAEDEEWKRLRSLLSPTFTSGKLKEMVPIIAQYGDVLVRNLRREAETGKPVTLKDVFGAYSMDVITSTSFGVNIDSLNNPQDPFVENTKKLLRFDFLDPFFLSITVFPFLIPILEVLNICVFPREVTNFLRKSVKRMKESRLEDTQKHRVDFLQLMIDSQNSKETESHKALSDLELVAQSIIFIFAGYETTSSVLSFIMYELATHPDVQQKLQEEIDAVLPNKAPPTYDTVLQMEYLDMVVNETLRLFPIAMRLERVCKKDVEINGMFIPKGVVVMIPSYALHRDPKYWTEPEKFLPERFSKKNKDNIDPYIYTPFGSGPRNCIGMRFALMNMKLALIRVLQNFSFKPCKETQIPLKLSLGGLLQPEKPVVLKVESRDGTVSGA
Sequence of Cytochrome P450 2C19 (P33261 whole entry): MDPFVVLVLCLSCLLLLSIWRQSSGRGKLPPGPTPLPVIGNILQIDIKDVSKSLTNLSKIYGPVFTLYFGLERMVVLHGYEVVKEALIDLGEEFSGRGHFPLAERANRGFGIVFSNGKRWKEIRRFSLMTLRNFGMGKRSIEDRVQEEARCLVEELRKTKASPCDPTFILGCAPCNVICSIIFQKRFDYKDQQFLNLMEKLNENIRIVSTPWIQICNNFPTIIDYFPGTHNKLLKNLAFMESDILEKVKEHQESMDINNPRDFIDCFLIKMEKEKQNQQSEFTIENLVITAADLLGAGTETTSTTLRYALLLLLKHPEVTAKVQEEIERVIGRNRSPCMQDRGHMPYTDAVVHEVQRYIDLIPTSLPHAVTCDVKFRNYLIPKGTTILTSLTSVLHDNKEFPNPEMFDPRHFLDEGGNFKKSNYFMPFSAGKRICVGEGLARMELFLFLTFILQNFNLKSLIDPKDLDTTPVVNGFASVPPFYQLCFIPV

Cc1[nH]c2ccccc2c1/C=N\NC(=O)Cn1nnc(-c2ccccc2)n1
IC50 [1]: > 50 µM (not active)

NC(=S)NN=Cc1nccc2c(C(F)(F)F)cccc12
CC50 [2]: 2.01 µM (active) | AC50 [3]: 1.77 µM (active)

CN(C)/N=C/c1cc([N+](=O)[O-])ccc1O
IC50 [1]: 13.8 µM (not active)

Cc1c(O)cc2n(c1=O)-c1ccc(Cl)cc1C2(C)C
EC50 [4]: > 150 µM (inactive) | EC50 [5]: 2 µM (active)

COc1ccc2[nH]cc(CCNC(=O)Nc3ccccc3)c2c1
IC50 [6]: > 20 µM (inactive)

CC(C)n1c(O)c(N=NC(=O)CNC(=O)CCc2ccccc2)c2ccccc21
IC50 [1]: > 50 µM (not active)

O=c1c2cc(-c3ccccc3)sc2nc2n1N=C(c1ccccc1)CS2
CC50 [2]: > 25 µM (active)

CC(=O)NNC(=O)N1Cc2ccccc2Oc2ccc(Cl)cc21
AC50 [7]: 12.6 µM (inconclusive) | AC50 [8]: 20 µM (inconclusive) | AC50 [9]: 31.6 µM (inconclusive) | AC50 [10]: 5.01 µM (inconclusive)

C(=C\c1ccccc1)/C=N/Nc1nc(N2CCCCC2)nc(N2CCCCC2)n1
EC50 [4]: > 150 µM (inactive) | EC50 [5]: > 38 µM (not active)

Cc1cccc(NC(=O)CN2C(=O)N/C(=C/c3cc(C)n(-c4cccnc4)c3C)C2=O)c1
IC50 [1]: > 50 µM (not active)

Cc1cc(C)cc(SCc2noc(C(=O)NCc3ccccc3)c2C(=O)NCc2ccccc2)c1
EC50 [11]: > 195 µM (not active) | IC50 [1]: 6.27 µM (not active)

CCOc1cc(/C=C2/N=C(C)C(C(=O)OC)=C2O)ccc1O
IC50 [12]: 26.3 µM (active) | IC50 [13]: 5.78 µM (active)

COc1ccc(/C=N/NC(=O)CCc2nnc(O)nc2O)cc1O
IC50 [13]: 28.9 µM (active)

CCCN1CCN(CCCNC(=O)c2cc3c(O)nc4ccc(C)cc4c3s2)CC1
CC50 [2]: > 25 µM (active)
